Measured values reported in patent publication US7612107B2, “Treatment and inhibition of disease conditions using flexible heteroarotinoids” (The Board of Regents of the University of Oklahoma, priority 2005, dated 2009).
Read-outs that look alike come from different tables or passages of the source.

Experiments:
[1] = system: dorsal skin; experiment: Topical irritancy in Skh hairless mice; type: in vivo; details: topical, dorsal skin, 4 days, 2-log dose range
Description: Female Skh hairless mice, 6-8 weeks old, were treated topically on the dorsal skin for 4 days over a 2-log concentration dose range with various compounds. Retinoic acid receptor-Hets were evaluated in A, while retinoic acid receptor-independent Flex-Hets were evaluated in B. Daily flaking and abrasion scores were combined to calculate a single cutaneous toxicity score for each mouse. Each treatment group consisted of 4 mice, and group averages were used to plot cutaneous toxicity against doses of the compounds.
Topical irritancy was evaluated according to published procedures (29). Briefly, female Skh hairless mice, 6-8 weeks old, were treated topically on the dorsal skin for 4 days over a 2-log concentration dose range with various compounds. Daily flaking and abrasion scores were combined to calculate a single cutaneous toxicity score for each mouse. Each treatment group consists of 4 mice, and group averages are used to plot cutaneous toxicity against dose of the retinoid compound.

[2] = system: Raldh2-/- embryos; details: for No. of −/− rescued / No. of −/− unrescued: E10.25; for Teratogenesis: mouse, in vivo, po
Description: Briefly, retinoids were dissolved in corn oil and administered orally to timed-pregnant Raldh2_/_mice at 12-h intervals on E7.25, E7.75, and E8.25. Dosages varied from 0.025 to 25 mg/kg. At E10.25, embryos were analyzed morphologically to determine whether Raldh2_/_embryos were rescued or whether wild-type embryos had suffered teratogenesis. Detection of embryonic RA was performed in situ in embryos carrying the RARE-lacZ RA-reporter gene by staining for beta-galactosidase activity for 10 h (45).
A mouse model that lacks retinaldehyde dehydrogenase (Raldh2) due to null mutations was used to test the ability of Flex-Hets to substitute for retinoic acid (RA) and induce birth defects. […] We examined the relative ability of all-trans-RA, 9-cis-RA, receptor-specific synthetic retinoids and retinoic acid receptor independent Flex-Hets to rescue the Raldh2_/_embryonic lethal phenotype.

[3] = system: EAhy.926 endothelial cells; experiment: Growth/viability of endothelial cells versus ovarian cancer cell lines; type: cell-based; details: 24 hours
Description: The graph on the left provides quantification of the endothelial branches for each treatment dose.
The increased thickness of the vessels at 1 μM and the increasing proportions of solitary clumps of cells at 5 and 10 μM indicate that SHetA2 is inhibiting endothelial cell migration. To determine if this anti-angiogenic activity was due to growth inhibition or cytotoxicity. The viability of the endothelial cells treated with SHetA2 for 24 hours was evaluated. […] This confirms the therapeutic ratio observed in previous studies.

[4] = system: blood vessel density in bFGF/VEGF-treated CAMs; experiment: Chorioallantoic membrane (CAM) assay; type: in vivo; details: 5 μM SHetA2
Description: FIG. 8. Effect of 5 μM SHetA2 on blood vessel density in the CAM assay. The mean±SEM blood vessel density per treatment as compared to bFGF/VEGF-treated CAMs; *=p<0.05 and **=p<0.001 as compared to bFGF/VEGF-treated CAMs as determined by one-way ANOVA and Neuman-Keuls post-test.
The CAM assay that was used is based upon the original procedure by Jakob et al. (36) with modifications made by our laboratory (37, 38) (see FIG. 8).

[5] = system: B16 mouse melanoma; experiment: B16 melanoma syngeneic tumor model; type: in vivo
Description: (§1) FIG. 12. Various Xenograft tumors stained with CD34 antibodies (brown) to identify endothelium. The B16 mouse melanoma cell line was established as a syngeneic tumor in an immunocompetent mouse model and the human Caki renal cancer and A2780 ovarian xenograft tumors in immunocompromised mice. The treated mice were gavaged with 60 mg/kg/day SHetA2 and the untreated were gavaged with solvent only. The tumors were excised and sections were stained with the anti-CD34 antibody to detect endothelial cells (brown stain).
(§2) Survival was the primary endpoint of those studies. […] Tumor growth was the primary endpoint of the renal cancer study.

[6] = system: A2780 ovarian xenograft tumors; experiment: A2780 ovarian xenograft tumor model; type: in vivo, mouse; details: ovarian cancer model
Description: as §1, §2

[7] = system: NF-κB; experiment: NF-κB luciferase reporter assay in A2780 cultures; type: cell-based; details: 10 μM SHetA2
Description: FIG. 15. SHetA2 Inhibition of NF-κB. A2780 cultures were transfected with the NF-κB reporter and treated with 10 μM SHetA2 for the indicated times. Cell lysates were prepared and evaluated for luciferase activity which was normalized for protein concentration.
Because both TP and TSP4 have DNA binding sites for the NFκB transcription factor in their promoter, the ability of SHetA2 to inhibit activity of NF-κB in ovarian cancer cultures was tested using a luciferase reporter plasmid driven by NF-κB sites in the promoter. […] Inhibition increased over the 4 hour evaluation time (FIG. 15).

[8] = system: organotypic cultures of human ovarian cancer cell lines and primary cultures; experiment: Ovarian carcinoma organotypic cultures (TUNEL, histology); type: cell-based
Description: FIG. 17. Retinoid effects on ovarian carcinoma organotypic cultures. Organotypic cultures of OVCAR-3 (A, B, E, F, I and J), Caov-3 (C and G), SK-OV-3 (D and H), and O2 (K and L) were grown in the absence (−, top row and K) or presence (+, middle row and I, J and L) of retinoid HetA4 at a concentration of 1 μM in the media. All sections were stained with H&E except for […], which was stained with PAS to detect glycoproteins and glandular differentiation, and J, which was stained with the TUNEL assay to detect apoptosis. All magnifications are 40×.
To test our hypotheses, we evaluated the effects of clinically achievable concentrations of 4-HPR and Flex-Hets on growth, differentiation and apoptosis in ovarian tissue. A series of compounds with a variety of receptor activation profiles were evaluated. In order to evaluate therapeutic effects, we developed an organotypic culture model of ovarian tumors by growing established cell lines and primary cultures inside collagen gels. Monolayer cultures of cells are not accurate representations of in vivo tissue because they lack the types of interactions that cells have with other cells and with the extracellular matrix in vivo. These interactions are known to influence gene expression and thus the constitution and behavior of cells. In our organotypic model, the growth of tumor cells inside the collagen allows a representation of tumors that have invaded stromal tissue. In the presence of fibroblasts, established cell lines and primary cultures of ovarian cancer formed colonies inside the collagen, while normal or benign ovarian epithelial cells remained as single cells inside the collagen. Human ovarian cancer cell lines (OVCAR-3, Caov-3, SK-OV-3, A2780, UCI 101) and primary human cultures (borderline ovarian tumor (O1), serous papillary tumor (O2), benign ovarian cyst (O3)) were cultured inside and on top of a collagen gel seeded with 3T3 fibroblasts for one week. After further incubation in the presence or absence of 1 μM retinoid (media concentration) for 3, 7 or 14 days, cultures were fixed and sectioned for immunohistochemical analysis.
The TUNEL assay was used to evaluate apoptosis in fixed, paraffin embedded, cut sections of the treated and control cultures (FIG. 17). […] These two cellular outcomes appeared to be mutually exclusive.

## CC1(C)CC(C)(C)c2cc(NC(=S)Nc3ccc([N+](=O)[O-])cc3)ccc2S1 [SHetA2]
[1]
  Topical irritancy (cutaneous toxicity score): did not induce topical irritancy
[2]; 2.5 mg/kg
  Rescue of Raldh2−/− embryos (in words): no rescue
  Teratogenesis: 0
[2]; 10 or 25 mg/kg
  Rescue of Raldh2−/− embryos (in words): no rescue
[2]; Dose 2.5 mg/kg oral
  No. of −/− rescued: 0
  No. of −/− unrescued: 1
[2]; Dose 10 mg/kg oral
  No. of −/− rescued: 0
  No. of −/− unrescued: 5
[2]; Dose 25 mg/kg oral
  No. of −/− rescued: 0
  No. of −/− unrescued: 1
[2]; 10 mg/kg
  Teratogenesis: 0
[2]; 25 mg/kg
  Teratogenesis: 0
[3]
  Growth inhibition of endothelial cells compared with A2780 and OVCAR-3: much less growth inhibited
[4]
  Angiogenesis (blood vessel density) in CAM assay: inhibits angiogenesis
[5]
  Survival: improved survival
[6]
  Survival: improved survival
[7]
  Time to inhibition of NF-κB activity: ≤ 30 min
[8]; 1 μM retinoid in media
  Induction of apoptosis (TUNEL) in organotypic cultures: Apoptosis was induced
  Level of apoptosis relative to the other retinoids (TUNEL): highest level of apoptosis
[8]; 1 μM, 3, 7 or 14 days
  Rank as regulator of growth, differentiation and apoptosis among eleven retinoids: most potent regulator of growth, differentiation and apoptosis
